According to US10131652B2, “Pyrimidinyloxy benzene derivatives as herbicides” (E. I. DU PONT DE NEMOURS AND COMPANY, priority 2014, dated 2018):

Key:
Assay in all cases: Test F pre-/postemergence plant response
Format in all cases: in vivo
Details in all cases: scale 0 to 100
[1] = system: ragweed (common ragweed, Ambrosia elatior)
Text: (§1) Seeds of plant species selected from corn (Zea mays), soybean (Glycine max), velvetleaf (Abutilon theophrasti), lambsquarters (Chenopodium album), wild poinsettia (Euphorbia heterophylla), palmer pigweed (Amaranthus palmeri), waterhemp (common waterhemp, Amaranthus rudis), surinam grass (Brachiaria decumbens), large (Lg) crabgrass (Digitaria sanguinalis), Brazilian crabgrass (Digitaria horizontalis), fall panicum (Panicum dichotomiflorum), giant foxtail (Setaria faberii), green foxtail (Setaria viridis), goosegrass (Eleusine indica), johnsongrass (Sorghum halepense), ragweed (common ragweed, Ambrosia elatior), barnyardgrass (Echinochloa crus-galli), sandbur (southern sandbur, Cenchrus echinatus), arrowleaf sida (Sida rhombifolia), Italian ryegrass (Lolium multiflorum), dayflower (Virginia (VA) dayflower, Commelina virginica), field bindweed (Convolvulus arvensis), cocklebur (common cocklebur, Xanthium strumarium), momingglory (Ipomoea coccinea), nightshade (eastern black nightshade, Solanum ptycanthum), kochia (Kochia scoparia), yellow nutsedge (Cyperus esculentus), and hairy beggarticks (Bidens pilosa), were planted into a silt loam soil and treated preemergence with test chemicals formulated in a non-phytotoxic solvent mixture which included a surfactant.
(§2) At the same time, plants from these crop and weed species and also waterhemp_RES1, (ALS & Triazine resistant common waterhemp, Amaranthus rudis), and waterhemp_RES2, (ALS & HPPD resistant common waterhemp, Amaranthus rudis) were treated with postemergence applications of test chemicals formulated in the same manner. Plants ranged in height from 2 to 18 cm for postemergence treatments (1- to 4-leaf stage).
(§3) Treated plants and controls were maintained in a greenhouse for 14 to 21 days, after which time all species were compared to controls and visually evaluated. Plant response ratings, summarized in Table F, are based on a scale of 0 to 100 where 0 is no effect and 100 is complete control. A dash (-) response means no test result.

[2] = system: waterhemp (common waterhemp, Amaranthus rudis)
Text: as §1, §2, §3

[3] = system: dayflower (Virginia (VA) dayflower, Commelina virginica)
Text: as §1, §2, §3

kochia (Kochia scoparia) = system: kochia (Kochia scoparia)
Text: as §1, §2, §3

[4] = system: Italian ryegrass (Lolium multiflorum)
Text: as §1, §2, §3

[5] = system: barnyardgrass (Echinochloa crus-galli)
Text: as §1, §2, §3

soybean (Glycine max) = system: soybean (Glycine max)
Text: as §1, §2, §3

[6] = system: field bindweed (Convolvulus arvensis)
Text: as §1, §2, §3

[7] = system: wild poinsettia (Euphorbia heterophylla)
Text: as §1, §2, §3

SMILES: Fc1ccc(Oc2ncc(Cl)cn2)c(-c2cc(C(F)(Cl)Cl)on2)c1 [Compound 221]
- Plant response rating, Ragweed ([1]; 16 g ai/ha Postemergence): 50
- Plant response rating, Ragweed ([1]; 31 g ai/ha Postemergence): 60
- Plant response rating, Ragweed ([1]; 62 g ai/ha Postemergence): 70
- Plant response rating, Ragweed ([1]; 125 g ai/ha Postemergence): 80
- Plant response rating, Waterhemp ([2]; 16 g ai/ha Postemergence): 90
- Plant response rating, Waterhemp ([2]; 31 g ai/ha Postemergence): 98
- Plant response rating, Waterhemp ([2]; 62 g ai/ha Postemergence): 95
- Plant response rating, Waterhemp ([2]; 125 g ai/ha Postemergence): 100
- Plant response rating, Dayflower, VA ([3]; 16 g ai/ha Postemergence): 60
- Plant response rating, Dayflower, VA ([3]; 31 g ai/ha Postemergence): 70
- Plant response rating, Dayflower, VA ([3]; 62 g ai/ha Postemergence): 80
- Plant response rating, Dayflower, VA ([3]; 125 g ai/ha Postemergence): 80
- Plant response rating, Kochia (kochia (Kochia scoparia); 16 g ai/ha Postemergence): 95
- Plant response rating, Kochia (kochia (Kochia scoparia); 31 g ai/ha Postemergence): 98
- Plant response rating, Kochia (kochia (Kochia scoparia); 62 g ai/ha Postemergence): 100
- Plant response rating, Kochia (kochia (Kochia scoparia); 125 g ai/ha Postemergence): 100
- Plant response rating, Ryegrass, Italian ([4]; 16 g ai/ha Postemergence): 0
- Plant response rating, Ryegrass, Italian ([4]; 31 g ai/ha Postemergence): 0
- Plant response rating, Ryegrass, Italian ([4]; 62 g ai/ha Postemergence): 0
- Plant response rating, Ryegrass, Italian ([4]; 125 g ai/ha Postemergence): 5
- Plant response rating, Barnyardgrass ([5]; 16 g ai/ha Postemergence): 15
- Plant response rating, Barnyardgrass ([5]; 31 g ai/ha Postemergence): 25
- Plant response rating, Barnyardgrass ([5]; 62 g ai/ha Postemergence): 30
- Plant response rating, Barnyardgrass ([5]; 125 g ai/ha Postemergence): 70
- Plant response rating, Soybean (soybean (Glycine max); 16 g ai/ha Postemergence): 60
- Plant response rating, Soybean (soybean (Glycine max); 31 g ai/ha Postemergence): 95
- Plant response rating, Soybean (soybean (Glycine max); 62 g ai/ha Postemergence): 98
- Plant response rating, Soybean (soybean (Glycine max); 125 g ai/ha Postemergence): 95
- Plant response rating, Field Bindweed ([6]; 16 g ai/ha Postemergence): 70
- Plant response rating, Field Bindweed ([6]; 31 g ai/ha Postemergence): 75
- Plant response rating, Field Bindweed ([6]; 125 g ai/ha Postemergence): 80
- Plant response rating, Poinsettia, Wild ([7]; 16 g ai/ha Postemergence): 65
- Plant response rating, Poinsettia, Wild ([7]; 31 g ai/ha Postemergence): 75
- Plant response rating, Poinsettia, Wild ([7]; 62 g ai/ha Postemergence): 70
- Plant response rating, Poinsettia, Wild ([7]; 125 g ai/ha Postemergence): 80

SMILES: FC(F)c1cc(-c2ccccc2Oc2ncc(Br)cn2)on1 [Compound 212]
- Plant response rating, Ragweed ([1]; 16 g ai/ha Postemergence): 20
- Plant response rating, Ragweed ([1]; 31 g ai/ha Postemergence): 20
- Plant response rating, Ragweed ([1]; 62 g ai/ha Postemergence): 30
- Plant response rating, Ragweed ([1]; 125 g ai/ha Postemergence): 50
- Plant response rating, Waterhemp ([2]; 16 g ai/ha Postemergence): 90
- Plant response rating, Waterhemp ([2]; 31 g ai/ha Postemergence): 90
- Plant response rating, Waterhemp ([2]; 62 g ai/ha Postemergence): 95
- Plant response rating, Waterhemp ([2]; 125 g ai/ha Postemergence): 100
- Plant response rating, Dayflower, VA ([3]; 16 g ai/ha Postemergence): 30
- Plant response rating, Dayflower, VA ([3]; 31 g ai/ha Postemergence): 20
- Plant response rating, Dayflower, VA ([3]; 62 g ai/ha Postemergence): 40
- Plant response rating, Dayflower, VA ([3]; 125 g ai/ha Postemergence): 50
- Plant response rating, Kochia (kochia (Kochia scoparia); 16 g ai/ha Postemergence): 50
- Plant response rating, Kochia (kochia (Kochia scoparia); 31 g ai/ha Postemergence): 90
- Plant response rating, Kochia (kochia (Kochia scoparia); 62 g ai/ha Postemergence): 100
- Plant response rating, Kochia (kochia (Kochia scoparia); 125 g ai/ha Postemergence): 100
- Plant response rating, Ryegrass, Italian ([4]; 16 g ai/ha Postemergence): 0
- Plant response rating, Ryegrass, Italian ([4]; 31 g ai/ha Postemergence): 0
- Plant response rating, Ryegrass, Italian ([4]; 62 g ai/ha Postemergence): 0
- Plant response rating, Ryegrass, Italian ([4]; 125 g ai/ha Postemergence): 0
- Plant response rating, Barnyardgrass ([5]; 16 g ai/ha Postemergence): 0
- Plant response rating, Barnyardgrass ([5]; 31 g ai/ha Postemergence): 0
- Plant response rating, Barnyardgrass ([5]; 62 g ai/ha Postemergence): 0
- Plant response rating, Barnyardgrass ([5]; 125 g ai/ha Postemergence): 10
- Plant response rating, Soybean (soybean (Glycine max); 16 g ai/ha Postemergence): 50
- Plant response rating, Soybean (soybean (Glycine max); 31 g ai/ha Postemergence): 50
- Plant response rating, Soybean (soybean (Glycine max); 62 g ai/ha Postemergence): 75
- Plant response rating, Soybean (soybean (Glycine max); 125 g ai/ha Postemergence): 95
- Plant response rating, Field Bindweed ([6]; 16 g ai/ha Postemergence): 30
- Plant response rating, Field Bindweed ([6]; 31 g ai/ha Postemergence): 40
- Plant response rating, Field Bindweed ([6]; 62 g ai/ha Postemergence): 60
- Plant response rating, Field Bindweed ([6]; 125 g ai/ha Postemergence): 70
- Plant response rating, Poinsettia, Wild ([7]; 16 g ai/ha Postemergence): 35
- Plant response rating, Poinsettia, Wild ([7]; 31 g ai/ha Postemergence): 40
- Plant response rating, Poinsettia, Wild ([7]; 62 g ai/ha Postemergence): 50
- Plant response rating, Poinsettia, Wild ([7]; 125 g ai/ha Postemergence): 60
